What was measured:
Mus musculus [1] = organism: Mus musculus; test: animal or person; conditions: sc, read-out: Inhibition
Description: Analgesic activity in mice using phenylquinone writhing test at 0.038 mg/kg, sc dose

Mus musculus [2] = test: Analgesic activity in mice using phenylquinone writhing test at 30 mg/kg, sc dose; type: functional; conditions: route subcutaneous
Rattus norvegicus [3] = test: % change in blood glucose concentration after 2 hr post treatment at 100 mg/kg, po; type: functional; design: unit: %
Rattus norvegicus [4] = test: (§1) % change in blood glucose concentration after 4 hr post treatment at 100 mg/kg, po; type: functional; design: unit: %
Mus musculus [5] = test: Analgesic activity in mice using phenylquinone writhing test at 0.0075 mg/kg, sc dose; type: functional; conditions: route subcutaneous
Mus musculus [6] = test: Analgesic activity in mice using phenylquinone writhing test at 10 mg/kg, sc dose; type: functional; conditions: route subcutaneous
Mus musculus [7] = test: Analgesic activity in mice using phenylquinone writhing test at 10 mg/kg, sc dose. 2 mg/kg Noxolone was prior to compound injection; type: functional
Rattus norvegicus [8] = test: % change in blood glucose concentration after 2 hr post treatment at 17 mg/kg, po; type: functional
Rattus norvegicus [9] = test: % change in blood glucose concentration after 4 hr post treatment at 30 mg/kg, po; type: functional
Mus musculus [10] = test: Analgesic activity in mice using phenylquinone writhing test at 3mg/kg, sc dose; type: functional
Mus musculus [11] = test: Analgesic activity in mice using phenylquinone writhing test at 3 mg/kg, sc dose. 0.6 mg/kg Noxolone was prior to compound injection; type: functional
Mus musculus [12] = test: Effective dose in mouse hotplate test at 55+/-0.5 degree Centigrade after 30 min of dosing; type: functional; conditions: 0.5 h
Mus musculus [13] = test: Analgesic activity in mice using phenylquinone writhing test at 60 mg/kg, sc dose; type: functional; conditions: route subcutaneous
Rattus norvegicus [14] = test: Inhibitory against carrageenan induced paw edema in rat at 120 mg/kg, sc dose after 3h; type: functional; conditions: route subcutaneous
Rattus norvegicus [15] = test: Inhibitory against carrageenan induced paw edema in rat at 120 mg/kg, sc dose after 5 hr; type: functional; conditions: route subcutaneous
Mus musculus [16] = test: Analgesic activity in mice using phenylquinone writhing test at 120 mg/kg, sc dose; type: functional; conditions: route subcutaneous
Mus musculus [17] = test: Analgesic activity in mice using phenylquinone writhing test at 25 mg/kg, sc dose; type: functional; conditions: route subcutaneous
Rattus norvegicus [18] = test: % change in blood glucose concentration after 2 hr post treatment at 41 mg/kg, po; type: functional
Rattus norvegicus [19] = test: % change in blood glucose concentration after 4 hr post treatment at 53 mg/kg, po; type: functional
Mus musculus [20] = test: Analgesic activity in mice using phenylquinone writhing test at 16.5 mg/kg, sc dose; type: functional; conditions: route subcutaneous
Rattus norvegicus [21] = test: % change in blood glucose concentration after 2 hr post treatment at 36.5 mg/kg, po; type: functional
Mus musculus [22] = test: Analgesic activity in mice using phenylquinone writhing test at 14.5 mg/kg, sc dose; type: functional; conditions: route subcutaneous
Rattus norvegicus [23] = test: as §1; type: functional
Rattus norvegicus [24] = test: Inhibitory against carrageenan induced paw edema in rat at 128 mg/kg, sc dose after 3h; type: functional; conditions: route subcutaneous
Rattus norvegicus [25] = test: Inhibitory against carrageenan induced paw edema in rat at 128 mg/kg, sc dose after 5 hr; type: functional; conditions: route subcutaneous
Mus musculus [26] = test: Inhibitory against carrageenan induced paw edema in mice at 128 mg/kg, sc dose after 3h; type: functional; conditions: route subcutaneous
Mus musculus [27] = test: Analgesic activity in mice using phenylquinone writhing test at 128 mg/kg when administered subcutaneously; type: functional; conditions: sc, route subcutaneous
Rattus norvegicus [28] = test: % change in blood glucose concentration after 2 hr post treatment at 128 mg/kg, po; type: functional
Rattus norvegicus [29] = test: % change in blood glucose concentration after 4 hr post treatment at 128 mg/kg, po; type: functional
Mus musculus [30] = test: Inhibitory against carrageenan induced paw edema in mice at 128 mg/kg, sc dose after 5 hr; type: functional; conditions: route subcutaneous
Mus musculus [31] = test: Analgesic activity in mice using phenylquinone writhing test at 0.00075 mg/kg, sc dose; type: functional; conditions: route subcutaneous
Rattus norvegicus [32] = test: % change in blood glucose concentration after 2 hr post treatment at 50 mg/kg, po; type: functional
Rattus norvegicus [33] = test: % change in blood glucose concentration after 4 hr post treatment at 60 mg/kg, po; type: functional
Mus musculus [34] = test: Analgesic activity in mice using phenylquinone writhing test at 50 mg/kg, sc dose; type: functional; conditions: route subcutaneous
Mus musculus [35] = test: Inhibitory against carrageenan induced paw edema in mice at 12 mg/kg, sc dose after 3h; type: functional; conditions: route subcutaneous
Mus musculus [36] = test: Inhibitory against carrageenan induced paw edema in mice at 12 mg/kg, sc dose after 5 hr; type: functional; conditions: route subcutaneous
Mus musculus [37] = test: Analgesic activity in mice using phenylquinone writhing test at 56 mg/kg, sc dose; type: functional; conditions: route subcutaneous

Row | Structure (SMILES) | inhibition in vivo at 30 mg/kg (Mus musculus [2]) [%] | Hyperglycemic activity (Rattus norvegicus [3]) | Hyperglycemic activity (Rattus norvegicus [4]) | other results
1 | CN1CC[C@]23c4c5ccc(O)c4O[C@H]2[C@@H](O)C=C[C@H]3[C@H]1C5 | – | – | – | inhibition in vivo at 0.038 mg/kg (Mus musculus [1]): 50%
2 | O=C(NN1CC=CCC1)C1CC1 | 100 | 66 | 111 | –
3 | O=C(NN1CC=CCC1)c1cccs1 | 77 | 116 | 64 | –
4 | O=C(NN1CC=CCC1)c1ccco1 | 99 | 181 | 182 | inhibition in vivo at 0.0075 mg/kg (Mus musculus [5]): 50%; inhibition in vivo at 10 mg/kg (Mus musculus [6]): 98.4%; Inhibition (Mus musculus [7]): 99.2%; Hyperglycemic activity (Rattus norvegicus [8]): 50; Hyperglycemic activity (Rattus norvegicus [9]): 50
5 | CCOC(=O)NN1CC=CCC1 | 99 | 27 | 91 | inhibition in vivo at 3 mg/kg (Mus musculus [10]): 85.6%; Inhibition (Mus musculus [11]): 86%; ED50 (Mus musculus [12]): 19.5 mg/kg
6 | O=C(Cc1ccc2c(c1)OCO2)NN1CC=CCC1 | – | 7 | 21 | inhibition in vivo at 60 mg/kg (Mus musculus [13]): 80%; inhibition in vivo at 120 mg/kg (Rattus norvegicus [14]): 0%; inhibition in vivo at 120 mg/kg (Rattus norvegicus [15]): 0%
7 | O=C(CCc1ccccc1)NN1CC=CCC1 | – | 27 | 25 | inhibition in vivo at 120 mg/kg (Mus musculus [16]): 42%; inhibition in vivo at 120 mg/kg (Rattus norvegicus [14]): 83%; inhibition in vivo at 120 mg/kg (Rattus norvegicus [15]): 83%
8 | O=C(COc1cccc2ccccc12)NN1CC=CCC1 | 76 | 9 | 14 | –
9 | O=C(COc1ccccc1)NN1CC=CCC1 | – | – | – | inhibition in vivo at 25 mg/kg (Mus musculus [17]): 50%; Hyperglycemic activity (Rattus norvegicus [18]): 50; Hyperglycemic activity (Rattus norvegicus [19]): 50; inhibition in vivo at 120 mg/kg (Rattus norvegicus [14]): 83%; inhibition in vivo at 120 mg/kg (Rattus norvegicus [15]): 80%
10 | O=C(NN1CC=CCC1)C1CCCCC1 | – | – | – | inhibition in vivo at 16.5 mg/kg (Mus musculus [20]): 50%; Hyperglycemic activity (Rattus norvegicus [21]): 50; Hyperglycemic activity (Rattus norvegicus [19]): 50; inhibition in vivo at 120 mg/kg (Rattus norvegicus [14]): 50%; inhibition in vivo at 120 mg/kg (Rattus norvegicus [15]): 84%
11 | CC(=O)NN1CC=CCC1 | 99 | 35 | 36 | –
12 | O=C(Cc1cccnc1)NN1CC=CCC1 | – | 0 | – | inhibition in vivo at 14.5 mg/kg (Mus musculus [22]): 50%; Hypoglycemic activity (Rattus norvegicus [23]): -6; inhibition in vivo at 128 mg/kg (Rattus norvegicus [24]): 50%; inhibition in vivo at 128 mg/kg (Rattus norvegicus [25]): 50%
13 | O=C(NN1CC=CCC1)C1CCCC1 | 98 | 54 | 22 | –
14 | O=C(NN1CC=CCC1)c1cccc[n+]1[O-] | – | – | – | inhibition in vivo at 128 mg/kg (Mus musculus [26]): 34%; inhibition in vivo at 128 mg/kg (Mus musculus [27]): 55%; Hypoglycemic activity (Rattus norvegicus [28]): <20; Hypoglycemic activity (Rattus norvegicus [29]): <20; inhibition in vivo at 128 mg/kg (Mus musculus [30]): 0%
15 | CC(C)(C)C(=O)NN1CC=CCC1 | 100 | 70 | 101 | –
16 | O=C(NN1CC=CCC1)c1cccc(C(=O)NN2CC=CCC2)n1 | 60 | -8 | 10 | –
17 | O=C(NN1CC=CCC1)C1CCCCCC1 | 98 | 100 | 82 | inhibition in vivo at 0.00075 mg/kg (Mus musculus [31]): 50%; Hyperglycemic activity (Rattus norvegicus [32]): 50; Hyperglycemic activity (Rattus norvegicus [33]): 50
18 | O=C(NN1CC=CCC1)C12C[C@H]3C[C@@H](C1)C[C@@H](C2)C3 | 86 | 33 | 22 | –
19 | Cn1cccc1C(=O)NN1CC=CCC1 | 90 | 35 | 25 | –
20 | CC(=O)Oc1ccccc1C(=O)O [ASPIRIN] | – | – | – | inhibition in vivo at 50 mg/kg (Mus musculus [34]): 50%
21 | COc1ccc2c(c1)c(CC(=O)O)c(C)n2C(=O)c1ccc(Cl)cc1 [INDOMETHACIN] | – | – | – | inhibition in vivo at 12 mg/kg (Mus musculus [35]): 17%; inhibition in vivo at 12 mg/kg (Mus musculus [36]): 83%
22 | CCC(=O)O[C@](Cc1ccccc1)(c1ccccc1)[C@H](C)CN(C)C [PROPOXYPHENE] | – | – | – | inhibition in vivo at 56 mg/kg (Mus musculus [37]): 50%

Source: ChEMBL document CHEMBL1122011, “Synthesis of N-(carbonylamino)-1,2,3,6-tetrahydropyridines with analgesic, antiinflammatory, and hyperglycemic activity” (J Med Chem, 1982)
